Measured values: patent US20250074891A1 (Anaxis Pharma Pty Ltd., priority 2021, published 2025)

Assays:
Details in all cases: Table 35
MLKL (full length) = MLKL (full length) (Homo sapiens (Human), UniProt Q8NB16); assay: KINOMEscan binding assay, MLKL (full length)
Experimental: (§1) Kinase assays. For most assays, kinase-tagged T7 phage strains were grown in parallel in 24-well blocks in an E. coli host derived from the BL21 strain. E. coli were grown to log-phase and infected with T7 phage from a frozen stock (multiplicity of infection=0.4) and incubated with shaking at 32° C. until lysis (90-150 minutes).
(§2) The Hill Slope was set to −1.

RIP3 = RIP3 (Homo sapiens (Human), UniProt Q9Y572); assay: KINOMEscan binding assay, RIP3
Experimental: as §1, §2

RIP1 = RIP1 (Homo sapiens (Human), UniProt Q13546); assay: KINOMEscan binding assay, RIP1
RIP1, sequence (Q13546 whole entry): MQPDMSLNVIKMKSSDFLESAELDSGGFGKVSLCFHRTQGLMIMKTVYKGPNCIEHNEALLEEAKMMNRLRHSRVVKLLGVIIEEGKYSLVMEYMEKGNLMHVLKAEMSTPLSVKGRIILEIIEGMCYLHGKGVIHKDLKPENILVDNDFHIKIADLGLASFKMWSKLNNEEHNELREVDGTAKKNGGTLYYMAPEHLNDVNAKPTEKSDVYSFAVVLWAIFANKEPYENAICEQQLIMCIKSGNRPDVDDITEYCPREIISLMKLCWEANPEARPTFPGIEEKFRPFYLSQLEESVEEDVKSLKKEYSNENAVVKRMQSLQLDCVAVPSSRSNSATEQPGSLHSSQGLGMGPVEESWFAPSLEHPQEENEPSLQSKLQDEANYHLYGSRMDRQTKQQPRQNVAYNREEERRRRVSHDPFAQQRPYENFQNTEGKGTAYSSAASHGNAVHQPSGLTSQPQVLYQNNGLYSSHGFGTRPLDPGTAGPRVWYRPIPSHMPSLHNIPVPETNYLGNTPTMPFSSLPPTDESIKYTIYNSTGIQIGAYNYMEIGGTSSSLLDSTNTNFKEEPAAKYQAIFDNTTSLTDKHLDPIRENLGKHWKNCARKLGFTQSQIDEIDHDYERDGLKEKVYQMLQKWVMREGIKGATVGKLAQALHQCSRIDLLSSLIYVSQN

RIP3, sequence (Q9Y572 whole entry): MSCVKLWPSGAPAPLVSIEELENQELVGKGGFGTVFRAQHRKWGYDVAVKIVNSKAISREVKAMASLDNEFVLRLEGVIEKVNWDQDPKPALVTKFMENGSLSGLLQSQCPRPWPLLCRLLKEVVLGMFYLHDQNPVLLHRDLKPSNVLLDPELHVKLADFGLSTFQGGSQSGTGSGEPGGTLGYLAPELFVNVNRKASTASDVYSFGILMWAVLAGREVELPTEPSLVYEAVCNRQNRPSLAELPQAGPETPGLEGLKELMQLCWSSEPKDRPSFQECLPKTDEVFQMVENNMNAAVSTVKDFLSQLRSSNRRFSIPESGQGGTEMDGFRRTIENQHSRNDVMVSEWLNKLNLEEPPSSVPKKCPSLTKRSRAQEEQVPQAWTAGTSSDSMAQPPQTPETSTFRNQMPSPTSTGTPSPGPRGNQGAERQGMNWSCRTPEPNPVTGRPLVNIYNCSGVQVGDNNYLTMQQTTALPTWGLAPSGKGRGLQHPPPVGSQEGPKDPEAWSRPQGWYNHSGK
MLKL (full length), sequence (Q8NB16 whole entry): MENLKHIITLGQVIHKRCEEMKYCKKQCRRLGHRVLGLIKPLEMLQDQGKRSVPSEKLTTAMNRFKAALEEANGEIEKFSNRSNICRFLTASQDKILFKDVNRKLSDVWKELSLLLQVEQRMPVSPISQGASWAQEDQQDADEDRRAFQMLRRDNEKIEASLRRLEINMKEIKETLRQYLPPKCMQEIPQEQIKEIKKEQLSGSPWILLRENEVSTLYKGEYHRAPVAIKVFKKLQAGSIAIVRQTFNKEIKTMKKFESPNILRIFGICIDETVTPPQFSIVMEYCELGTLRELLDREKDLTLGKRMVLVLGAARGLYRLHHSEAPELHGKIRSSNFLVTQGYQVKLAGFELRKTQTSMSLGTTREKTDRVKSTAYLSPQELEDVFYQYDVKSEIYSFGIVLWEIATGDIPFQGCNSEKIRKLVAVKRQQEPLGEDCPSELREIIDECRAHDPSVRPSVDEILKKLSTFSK

| Kd (MLKL (full length)) [µM] | Kd (RIP3) [µM] | Kd (RIP1) [µM] | Structure (SMILES) |
| --- | --- | --- | --- |
| < 0.01 | > 30 | > 30 | NC(=O)c1c(-c2ccc(NS(=O)(=O)CC(F)(F)F)cc2OCc2ccc(F)cc2)n[nH]c1Nc1cnccn1 [Compound 139, 3-(2-((4-fluorobenzyl)oxy)-4-((2,2,2-trifluoroethyl)sulfonamido)phenyl)-5-(pyrazin-2-ylamino)-1H-pyrazole-4-carboxamide] |
| < 0.01 | > 30 | > 30 | CCS(=O)(=O)Nc1ccc(-c2n[nH]c(Nc3cnccn3)c2C(N)=O)cc1OCc1ccc(F)c(F)c1 [Compound 1, 3-(3-((3,4-difluorobenzyl)oxy)-4-(ethylsulfonamido)phenyl)-5-(pyrazin-2-ylamino)-1H-pyrazole-4-carboxamide] |
| < 0.01 | > 30 | > 30 | CCS(=O)(=O)Nc1ccc(-c2n[nH]c(Nc3cnccn3)c2C(N)=O)cc1OCc1ccc(F)cc1C [Compound 171, 3-(4-(ethylsulfonamido)-3-((4-fluoro-2-methylbenzyl)oxy)phenyl)-5-(pyrazin-2-ylamino)-1H-pyrazole-4-carboxamide] |
| < 0.01 | > 30 | > 30 | CCS(=O)(=O)Nc1ccc(-c2n[nH]c(Nc3cnccn3)c2C(N)=O)cc1OC1(c2ccccc2)CC1 [Compound 152, 3-(4-(ethylsulfonamido)-3-(1-phenylcyclopropoxy)phenyl)-5-(pyrazin-2-ylamino)-1H-pyrazole-4-carboxamide] |
| < 0.01 | > 30 | > 30 | CCS(=O)(=O)Nc1ccc(-c2n[nH]c(Nc3cnccn3)c2C(N)=O)cc1OC1CCCc2ccccc21 (stereo not drawn) [Compound 232, 3-[4-ethanesulfonamido-3-(1,2,3,4-tetrahydronaphthalen-1-yloxy)phenyl]-5-[(pyrazin-2-yl)amino]-1H-pyrazole-4-carboxamide] |
| < 0.01 | > 30 | > 30 | Cc1cnc(Nc2[nH]nc(-c3ccc(NS(=O)(=O)C(F)F)c(O[C@@H](C)c4ccc(F)cc4)c3)c2C(N)=O)cn1 [Compound 245, 3-[4-(difluoro-methanesulfon-amido)-3-[(1S)-1-(4-fluorophenyl)ethoxy]phenyl]-5-[(5-methylpyrazin-2-yl)amino]-1H-pyrazole-4-carboxamide] |
| < 0.01 | > 30 | > 30 | CCS(=O)(=O)Nc1ccc(-c2n[nH]c(Nc3ccccn3)c2C(N)=O)c(OCc2ccc(F)cc2)c1 [Compound 201] |
| < 0.01 | > 30 | > 30 | NC(=O)c1c(-c2ccc(NS(=O)(=O)CC(F)(F)F)c(OCc3ccc(F)c(F)c3)c2)n[nH]c1Nc1cnccn1 [Compound 175, 3-(3-((3,4-difluorobenzyl)oxy)-4-((2,2,2-trifluoroethyl)sulfonamido)phenyl)-5-(pyrazin-2-ylamino)-1H-pyrazole-4-carboxamide] |
| < 0.01 | > 30 | > 30 | C[C@H](Oc1cc(-c2n[nH]c(Nc3cnccn3)c2C(N)=O)ccc1NS(=O)(=O)C(F)F)c1ccc(Cl)cc1 [Compound 252, 3-{3-[(1S)-1-(4-chlorophenyl)ethoxy]-4-(difluoromethanesulfonamido)phenyl}-5-[(pyrazin-2-yl)amino]-1H-pyrazole-4-carboxamide] |
| < 0.01 | > 30 | > 30 | C[C@H](Oc1cc(-c2n[nH]c(Nc3cnc(C4CC4)cn3)c2C(N)=O)ccc1NS(=O)(=O)C(F)F)c1ccc(F)cc1 [Compound 316, (S)-5-((5-cyclopropylpyrazin-2-yl)amino)-3-(4-((difluoromethyl)sulfonamido)-3-(1-(4-fluorophenyl)ethoxy)phenyl)-1H-pyrazole-4-carboxamide] |
| < 0.01 | > 30 | > 30 | COc1cnc(Nc2[nH]nc(-c3ccc(NS(=O)(=O)CC(F)(F)F)c(OCc4ccc(Cl)cc4)c3)c2C(N)=O)cn1 [Compound 157, 3-(3-((4-chlorobenzyl)oxy)-4-((2,2,2-trifluoroethyl)sulfonamido)phenyl)-5-((5-methoxypyrazin-2-yl)amino)-1H-pyrazole-4-carboxamide] |
| < 0.01 | > 30 | > 30 | CCS(=O)(=O)Nc1ccc(-c2n[nH]c(Nc3cnccn3)c2C(N)=O)cc1OCc1ccc(Cl)c(F)c1 [Compound 166, 3-(3-((4-chloro-3-fluorobenzyl)oxy)-4-(ethylsulfonamido)phenyl)-5-(pyrazin-2-ylamino)-1H-pyrazole-4-carboxamide] |
| < 0.01 | > 30 | > 30 | Cc1nccc(Nc2[nH]nc(-c3ccc(NS(=O)(=O)C(F)F)c(O[C@@H](C)c4ccc(F)cc4)c3)c2C(N)=O)n1 [Compound 309, (S)-3-(4-((difluoromethyl)sulfonamido)-3-(1-(4-fluorophenyl)ethoxy)phenyl)-5-((2-methylpyrimidin-4-yl)amino)-1H-pyrazole-4-carboxamide] |
| < 0.01 | > 30 | > 30 | C[C@H](Oc1cc(-c2n[nH]c(Nc3cc(C4CCC4)on3)c2C(N)=O)ccc1NS(=O)(=O)C(F)F)c1ccc(F)cc1 [Compound 281, (S)-5-((5-cyclobutylisoxazol-3-yl)amino)-3-(4-((difluoromethyl)sulfonamido)-3-(1-(4-fluorophenyl)ethoxy)phenyl)-1H-pyrazole-4-carboxamide] |
| < 0.01 | > 30 | > 30 | CCS(=O)(=O)Nc1ccc(-c2n[nH]c(Nc3cnccn3)c2C(N)=O)c(OCc2ccc(Cl)cc2)c1 [Compound 198, 3-(2-((4-chlorobenzyl)oxy)-4-(ethylsulfonamido)phenyl)-5-(pyrazin-2-ylamino)-1H-pyrazole-4-carboxamide] |
| < 0.01 | > 30 | > 30 | Cc1cnc(Nc2[nH]nc(-c3ccc(NS(=O)(=O)CCC(F)(F)F)c(OCc4ccc(F)cc4)c3)c2C(N)=O)cn1 [Compound 183, 3-(3-((4-fluorobenzyl)oxy)-4-((3,3,3-trifluoropropyl)sulfonamido)phenyl)-5-((5-methylpyrazin-2-yl)amino)-1H-pyrazole-4-carboxamide] |
| < 0.01 | > 30 | > 30 | NC(=O)c1c(-c2ccc(NS(=O)(=O)CC(F)(F)F)c(OCc3ccccn3)c2)n[nH]c1Nc1cnccn1 [Compound 227, 5-[(pyrazin-2-yl)amino]-3-{3-[(pyridin-2-yl)methoxy]-4-(2,2,2-trifluoroethanesulfonamido)phenyl}-1H-pyrazole-4-carboxamide] |
| < 0.01 | > 30 | > 30 | C[C@H](Oc1cc(-c2n[nH]c(Nc3cnccn3)c2C(N)=O)ccc1NS(=O)(=O)CC(F)(F)F)c1cccc(Cl)c1 [Compound 256, 3-{3-[(1S)-1-(3-chlorophenyl)ethoxy]-4-(2,2,2-trifluoroethane-sulfonamido)phenyl}-5-[(pyrazin-2-yl)amino]-1H-pyrazole-4-carboxamide] |
| < 0.01 | > 30 | > 30 | COc1cc(Nc2[nH]nc(-c3ccc(NS(=O)(=O)C(F)F)c(O[C@@H](C)c4ccc(F)cc4)c3)c2C(N)=O)nn1C [Compound 294, (S)-3-(4-((difluoromethyl)sulfonamido)-3-(1-(4-fluorophenyl)ethoxy)phenyl)-5-((5-methoxy-1-methyl-1H-pyrazol-3-yl)amino)-1H-pyrazole-4-carboxamide] |
